{
  "source": "paper PMC7645381",
  "about": "“Development and application of a high-throughput screening assay for identification of small molecule inhibitors of the P. falciparum reticulocyte binding-like homologue 5 protein” (International Journal for Parasitology: Drugs and Drug …, 2020)",
  "key": {"[1]": {"biological_target": "P. falciparum Rh5 (Rh5 – basigin interaction) (Plasmodium falciparum, UniProt Q8IFM5)", "sequence (Q8IFM5 24-526)": "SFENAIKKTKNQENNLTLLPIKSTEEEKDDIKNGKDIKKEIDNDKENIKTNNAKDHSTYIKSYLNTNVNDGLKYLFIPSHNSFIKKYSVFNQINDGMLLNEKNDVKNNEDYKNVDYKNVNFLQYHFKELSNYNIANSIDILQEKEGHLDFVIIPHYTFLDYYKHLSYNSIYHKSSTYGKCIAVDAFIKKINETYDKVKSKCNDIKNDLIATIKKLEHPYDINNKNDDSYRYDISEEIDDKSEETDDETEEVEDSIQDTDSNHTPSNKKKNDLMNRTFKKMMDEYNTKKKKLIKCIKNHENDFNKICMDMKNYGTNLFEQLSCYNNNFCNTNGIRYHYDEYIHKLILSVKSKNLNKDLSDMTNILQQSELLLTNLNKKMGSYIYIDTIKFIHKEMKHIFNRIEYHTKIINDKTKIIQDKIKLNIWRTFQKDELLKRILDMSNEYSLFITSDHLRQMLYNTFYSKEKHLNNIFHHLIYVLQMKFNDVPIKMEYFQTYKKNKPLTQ", "experiment": "biochemical", "parameters": "AlphaScreen of Rh5 - His-tagged basigin interaction with anti-Rh5 mAb beads; inhibition of luminescence signal", "settings": "Batch Reference=01; primary pilot screen, single point", "method": "Using the Combi-multidrop, 5 μL of Rh5 stock solution (200 nM prepared in assay buffer) was added to columns 1–24 of the 384-well assay plate (Greiner 384-well white, low binding plate, #784904, Bioone). The PerkinElmer Janus automated dispensing system was then employed to transfer, via the pin-tool, 2 × 100 nL of the compound stock DMSO solution from the compound master plate to the assay plate. The plate was sealed and incubated for 30 min at room temperature. Using a Combi-multidrop, 5 μL of hexa-histidine tagged basigin stock solution (80 nM prepared in assay buffer) was then added to columns 1–23 and 5 μL assay buffer to column 24 of the 384-well assay plate. The plate was sealed again and incubated for 30 min at room temperature. A solution of AlphaScreen donor and acceptor beads (20 μg/mL prepared in assay buffer) plus anti-Rh5 mAb solution (2 μg/mL prepared in assay buffer) was prepared in assay buffer under subdued lighting. Using the Combi-multidrop, 10 μL of this solution was added to every well of the assay plate under subdued lighting. The plate was sealed with foil (plate max) and incubated at room temperature for 1 h. The assay plate was then analysed on the PerkinElmer Envision 2103 Multilabel Plate Reader (Ex 680, Em 520–620 nm). The optimised Rh5 AlphaScreen assay was then validated for HT screening purposes by conducting a pilot screen using known drug library (from Prestwick, Tocris and LOPAC) and the MMV Malaria Box, comprising 3708 and 400 compounds (Fig. 1), respectively. Historically, PPIs are notoriously difficult to target with small molecules. To enhance the likelihood of identifying an inhibitor of the Rh5 - basigin interaction the primary screen was conducted at a compound concentration of 20 μM. A 20 μM screening concentration is considered high, when compared to the commonly used primary screen concentrations of approximately 1–10 μM. To follow-up on hit compounds from the pilot validation screen, we next wanted to confirm the activity of the primary hits. To do this, a two-phase hit confirmation and counterscreen process was undertaken (Fig. 1). In the first phase, the 231 primary hits from both libraries were evaluated in the Rh5 AlphaScreen assay and counterscreen assay. Both assays were undertaken at 10 μM in duplicate. The counterscreen assay was conducted using AlphaScreen TruHits. […] The 45 secondary hits can be viewed in the top left quadrant of Fig. S8. Of the 45 hits, 13 compounds originated from the Malaria Box and 32 compounds from the known drug library."}, "[2]": {"experiment": "Solubility in SPR running buffer", "format": "physicochemical"}, "[3]": {"tested_on": "P. falciparum 3D7 parasites", "experiment": "P. falciparum parasite viability assay (LDH)", "format": "cell-based", "settings": "LDH activity, 10-point dilution series, 72 h, read-out: P. falciparum 3D7 EC50", "method": "A modified version of the lactate dehydrogenase (LDH) assay described by [Gamo et al. […] Compounds were pre-dispensed in 384-well plates, RPMI/Albumax growth media was added, and P. falciparum inoculated. Plates were incubated for 72 h and then frozen at −80 °C overnight. LDH activity was quantified with the modified cofactor 3-acetylpyridine adenine dinucleotide (APAD) (Sigma Aldrich) by measuring absorbance of the tetrazolium indicator nitro blue tetrazolium (NBT) (Sigma Aldrich) at 650 nm. Parasite conditions: […] Growth inhibition assay: […] Intermediate compound dilution plates were prepared by dispensing 5 μL from each well of the compound master plate into 11.5 μL of RPMI/Albumax growth media. Duplicate assay plates (384-well) were then prepared by dispensing 0.5 μL of compound from the intermediate dilution plates into 9.5 μL of RPMI/Albumax growth media. […] The final DMSO concentration was 0.1% (to limit toxicity to parasites). […] Evaluation of parasite growth measuring lactate dehydrogenase (LDH) activity: After 72 h of incubation, plates were frozen at −80 °C overnight and then thawed at room temperature for at least 4 h. […] Plates were shaken to ensure mixing and absorbance at 650 nm was monitored using a PerkinElmer Envision plate reader after 30 min of incubation at room temperature. Data were normalised to percent growth inhibition using positive and negative controls and analyzed using TIBCO Spotfire software."}, "P. falciparum D10": {"tested_on": "P. falciparum D10", "experiment": "P. falciparum D10 growth inhibition by flow cytometry", "format": "cell-based", "settings": "Plasmodium falciparum, D10; growth inhibition by flow cytometry, 12-point dilution series, 72 h", "method": "Pranlukast and selected analogues were then evaluated in a P. falciparum parasite viability assay. For this assay, we followed the procedure described by [Gamo et al. (2010)], that used lactate dehydrogenase (LDH) as a readout for parasite viability. In this assay, 3D7 parasites were incubated over 72 h in the presence of increasing concentrations of compounds. […]. For a comparison, selected compounds were incubated in the presence of P. falciparum D10 parasites for 72 h (Table 1, Fig. S14) and growth inhibition measured by flow cytometry. […]."}, "PfRh5": {"biological_target": "PfRh5 (Plasmodium falciparum, UniProt Q8IFM5)", "sequence (Q8IFM5 24-526)": "as above", "experiment": "Differential scanning fluorimetry of Rh5", "format": "binding, P. falciparum", "settings": "DSF", "method": "Differential scanning fluorimetry assays were performed as described previously ([Murphy et al., 2013], [2014a], [2014b]) using a Rotor-Gene Q PCR. Briefly, purified PfRh5 was diluted in 20 mM Tris pH 8.0, 150 mM NaCl to achieve 10 μg per reaction and assayed with the appropriate concentration of inhibitor in a total reaction volume of 25 μL. SYPRO Orange (Molecular Probes, CA) was used as a fluorescence probe and detected at 530 nm. Compounds were titrated at final concentrations ranging from 5 μM to 80 μM final. Data was transformed and plotted using GraphPad Prism. Shown data are representative means of two technical experiments."}},
  "note": "Like-named read-outs stand apart in the source and are kept apart here.",
  "data": [
    {"smiles": "O=C(Nc1cccc2c(=O)cc(-c3nnn[nH]3)oc12)c1ccc(OCCCCc2ccccc2)cc1", "note": "[pranlukast]", "values": [
      {"measurement": "inhibition at 20 µM", "setting": "[1]", "result": 75.4, "unit": "%"},
      {"measurement": "solubility in the SPR running buffer", "setting": "[2]", "result": "limited solubility"},
      {"measurement": "EC50", "setting": "[3]", "result": 40, "unit": "µM"},
      {"measurement": "EC50", "setting": "[3]; Plasmodium falciparum, 3D7, 72 h", "result": 39, "unit": "µM"},
      {"measurement": "EC50", "setting": "P. falciparum D10", "result": 28, "unit": "µM"},
      {"measurement": "effect on Tm of Rh5", "setting": "PfRh5; concentrations of 0–20 μM", "result": "dose dependent increase in the Tm of Rh5"},
      {"measurement": "effect on Tm of Rh5", "setting": "PfRh5; high concentration (>40 μM)", "result": "markedly lower Tm"}
    ]}
  ]
}
